The source made the active and inactive calls.
How the values were obtained:
14-3-3 protein gamma = 14-3-3 protein gamma (Homo sapiens, UniProt P61981); test: modulators of 14-3-3 gamma client binding – dose response (AID 711); format: functional
[1] = viability loss in Vero cells – cytotoxicity control for Vif-APOBEC3G degradation inhibitor project, dose response (AID 1117358); format: functional; conditions: Vero
[2] = viability of uninfected HEp-2 cells – cell-based, HTS, cytotoxicity control for RSV inhibitor project, dose response (AID 2410); format: functional; conditions: human respiratory syncytial virus
Protein Tat = Protein Tat (Human immunodeficiency virus type 1 group M subtype B (isolate HXB2)(HIV-1), UniProt P04608); format: functional;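 further: tat binding to TAR RNA read out by fluorescence polarization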
Cytochrome P450 1A2 = target: T1, Cytochrome P450 1A2 (Homo sapiens, UniProt P05177);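 further: PubChem cytochrome P450 panel assay, CYP1A2 panel member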
T1 sequence (P05177 whole entry): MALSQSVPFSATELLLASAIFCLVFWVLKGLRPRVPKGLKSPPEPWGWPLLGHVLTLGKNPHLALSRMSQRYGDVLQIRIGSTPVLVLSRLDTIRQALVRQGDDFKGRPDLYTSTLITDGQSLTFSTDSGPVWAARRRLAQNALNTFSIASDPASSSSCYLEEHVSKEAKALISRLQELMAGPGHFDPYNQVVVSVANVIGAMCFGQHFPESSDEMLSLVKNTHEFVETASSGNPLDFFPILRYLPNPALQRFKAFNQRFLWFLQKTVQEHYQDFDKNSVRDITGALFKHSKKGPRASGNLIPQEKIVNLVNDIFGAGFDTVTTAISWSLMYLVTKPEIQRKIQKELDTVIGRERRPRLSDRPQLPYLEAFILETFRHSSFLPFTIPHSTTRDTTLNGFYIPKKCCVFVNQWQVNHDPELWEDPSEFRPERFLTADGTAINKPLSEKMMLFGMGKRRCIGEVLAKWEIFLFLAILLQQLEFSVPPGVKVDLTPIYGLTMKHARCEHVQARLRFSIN

Cytochrome P450 3A4 = Cytochrome P450 3A4 (Homo sapiens, UniProt P08684);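 further: CYP3A4 tested as one member of a cytochrome P450 panel screen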
[3] = IC50 of insulin release inhibition, rat insulinoma INS-1E line, 5 mM glucose, cell-based (AID 1117331); format: functional
Streptococcus = test: GAS UMAA2166 growth inhibition – luminescence, BacTiterGlo, counter-screen for streptokinase expression inhibitor project, dose response (AID 1915); format: functional, organism-based;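 further: potency for reduction of bacterial viability or growth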
[4] = system: Streptococcus sp. 'group A'; test: Streptococcus pyogenes SK(-)GAS viability under kanamycin – luminescence, BacTiterGlo, confirmation, counter-screen for streptokinase expression inhibitor project, dose response (AID 1900); format: functional, organism-based
[5] = target: Voltage-dependent T-type calcium channel subunit alpha-1H (Homo sapiens, UniProt O95180); format: functional;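 further: channel activity triggered by adding a high calcium stimulation buffer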
Streptokinase A = target: T2, Streptokinase A (Streptococcus pyogenes serotype M1, UniProt P10520); test: viability-normalized secreted streptokinase activity reduction – plasminogen activation absorbance, OD405, dose response (AID 1914); format: functional, Streptococcus pyogenes M1 GAS;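 further: secreted streptokinase activity via plasminogen activation per viability signal from cell pellet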
T2 sequence (P10520 whole entry): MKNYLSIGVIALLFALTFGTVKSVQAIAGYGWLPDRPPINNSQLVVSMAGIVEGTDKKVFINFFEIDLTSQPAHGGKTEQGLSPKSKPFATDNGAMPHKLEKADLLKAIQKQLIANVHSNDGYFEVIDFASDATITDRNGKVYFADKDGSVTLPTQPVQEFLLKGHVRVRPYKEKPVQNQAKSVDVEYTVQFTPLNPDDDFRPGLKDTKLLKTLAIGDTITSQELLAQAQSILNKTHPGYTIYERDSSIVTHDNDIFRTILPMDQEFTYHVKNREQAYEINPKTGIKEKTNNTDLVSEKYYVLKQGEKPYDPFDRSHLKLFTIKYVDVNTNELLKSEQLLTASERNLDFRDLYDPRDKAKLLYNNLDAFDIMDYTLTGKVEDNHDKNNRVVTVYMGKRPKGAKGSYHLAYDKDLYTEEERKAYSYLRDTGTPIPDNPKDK

P388/ADR = test: cells; format: functional; conditions: Mus musculus
Cytochrome P450 2C9 = Cytochrome P450 2C9 (Homo sapiens, UniProt P11712); conditions: Potency
SN12K1 = test: cells; format: functional; conditions: Homo sapiens
[6] = viability of PTEN-deleted HCT116 cells – cell-based, HCT116 PTEN knockout, dose response (AID 1047); format: functional;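 further: HCT116 colon tumor cells with PTEN knocked out; cells exposed to compound for 60 hours before readout; potency for loss of cell viability measured by luminescence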
Galanin receptor type 2 = Galanin receptor type 2 (Homo sapiens, UniProt O43603); test: Dose Response cell-based high-throughput screening assay to identify agonists of galanin receptor 2 (GALR2). [Related pubchem assays: 864 ]; format: functional
[7] = viability loss of HPDE-C7K cells – cell-based, fluorescence, HTS, primary screen (AID 431); format: functional; conditions: Homo sapiens
[8] = viability of HCT116 lacking mutant beta-catenin – cell-based, human colon tumor, dose response (AID 1045); format: functional;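 further: HCT116 colon tumor cells with beta catenin knocked out; cells exposed to compound for 60 hours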
P388 = test: cells; format: functional; conditions: Mus musculus
[9] = target: Dual specificity tyrosine-phosphorylation-regulated kinase 1A (Rattus norvegicus, UniProt Q63470); format: biochemical, Homo sapiens
INS1 = test: INS-1E survival protection against cytokine death – cell-based, luminescence, retest, dose response (AID 449756); format: functional; conditions: Rattus norvegicus;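 further: cell death triggered by IL-1 beta plus TNF-alpha plus IFN-gamma mixture; protective hits raise ATP signal compared with cytokine alone wells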
[10] = HPDE-C7 pancreatic duct cell viability loss – fluorescence, HTS (AID 430); format: functional, cell-based; conditions: Homo sapiens
[11] = Luminescence Cell-Based Dose Response HTS to Identify Inhibitors of 5'UTR Stem-Loop Driven Prion Protein mRNA Translation in H4 Neuroglioblastoma Cells. [Related pubchem assays: 1827 (Project Summary), 1813 (Primary HTS)]; format: functional
Vero = test: Vero cell viability after compound exposure – synthesized analogs, set II, cytotoxicity control for West Nile virus antiviral project, SAR follow-up (AID 2402); format: functional; conditions: Chlorocebus sabaeus

Sequence of Voltage-dependent T-type calcium channel subunit alpha-1H (O95180 whole entry): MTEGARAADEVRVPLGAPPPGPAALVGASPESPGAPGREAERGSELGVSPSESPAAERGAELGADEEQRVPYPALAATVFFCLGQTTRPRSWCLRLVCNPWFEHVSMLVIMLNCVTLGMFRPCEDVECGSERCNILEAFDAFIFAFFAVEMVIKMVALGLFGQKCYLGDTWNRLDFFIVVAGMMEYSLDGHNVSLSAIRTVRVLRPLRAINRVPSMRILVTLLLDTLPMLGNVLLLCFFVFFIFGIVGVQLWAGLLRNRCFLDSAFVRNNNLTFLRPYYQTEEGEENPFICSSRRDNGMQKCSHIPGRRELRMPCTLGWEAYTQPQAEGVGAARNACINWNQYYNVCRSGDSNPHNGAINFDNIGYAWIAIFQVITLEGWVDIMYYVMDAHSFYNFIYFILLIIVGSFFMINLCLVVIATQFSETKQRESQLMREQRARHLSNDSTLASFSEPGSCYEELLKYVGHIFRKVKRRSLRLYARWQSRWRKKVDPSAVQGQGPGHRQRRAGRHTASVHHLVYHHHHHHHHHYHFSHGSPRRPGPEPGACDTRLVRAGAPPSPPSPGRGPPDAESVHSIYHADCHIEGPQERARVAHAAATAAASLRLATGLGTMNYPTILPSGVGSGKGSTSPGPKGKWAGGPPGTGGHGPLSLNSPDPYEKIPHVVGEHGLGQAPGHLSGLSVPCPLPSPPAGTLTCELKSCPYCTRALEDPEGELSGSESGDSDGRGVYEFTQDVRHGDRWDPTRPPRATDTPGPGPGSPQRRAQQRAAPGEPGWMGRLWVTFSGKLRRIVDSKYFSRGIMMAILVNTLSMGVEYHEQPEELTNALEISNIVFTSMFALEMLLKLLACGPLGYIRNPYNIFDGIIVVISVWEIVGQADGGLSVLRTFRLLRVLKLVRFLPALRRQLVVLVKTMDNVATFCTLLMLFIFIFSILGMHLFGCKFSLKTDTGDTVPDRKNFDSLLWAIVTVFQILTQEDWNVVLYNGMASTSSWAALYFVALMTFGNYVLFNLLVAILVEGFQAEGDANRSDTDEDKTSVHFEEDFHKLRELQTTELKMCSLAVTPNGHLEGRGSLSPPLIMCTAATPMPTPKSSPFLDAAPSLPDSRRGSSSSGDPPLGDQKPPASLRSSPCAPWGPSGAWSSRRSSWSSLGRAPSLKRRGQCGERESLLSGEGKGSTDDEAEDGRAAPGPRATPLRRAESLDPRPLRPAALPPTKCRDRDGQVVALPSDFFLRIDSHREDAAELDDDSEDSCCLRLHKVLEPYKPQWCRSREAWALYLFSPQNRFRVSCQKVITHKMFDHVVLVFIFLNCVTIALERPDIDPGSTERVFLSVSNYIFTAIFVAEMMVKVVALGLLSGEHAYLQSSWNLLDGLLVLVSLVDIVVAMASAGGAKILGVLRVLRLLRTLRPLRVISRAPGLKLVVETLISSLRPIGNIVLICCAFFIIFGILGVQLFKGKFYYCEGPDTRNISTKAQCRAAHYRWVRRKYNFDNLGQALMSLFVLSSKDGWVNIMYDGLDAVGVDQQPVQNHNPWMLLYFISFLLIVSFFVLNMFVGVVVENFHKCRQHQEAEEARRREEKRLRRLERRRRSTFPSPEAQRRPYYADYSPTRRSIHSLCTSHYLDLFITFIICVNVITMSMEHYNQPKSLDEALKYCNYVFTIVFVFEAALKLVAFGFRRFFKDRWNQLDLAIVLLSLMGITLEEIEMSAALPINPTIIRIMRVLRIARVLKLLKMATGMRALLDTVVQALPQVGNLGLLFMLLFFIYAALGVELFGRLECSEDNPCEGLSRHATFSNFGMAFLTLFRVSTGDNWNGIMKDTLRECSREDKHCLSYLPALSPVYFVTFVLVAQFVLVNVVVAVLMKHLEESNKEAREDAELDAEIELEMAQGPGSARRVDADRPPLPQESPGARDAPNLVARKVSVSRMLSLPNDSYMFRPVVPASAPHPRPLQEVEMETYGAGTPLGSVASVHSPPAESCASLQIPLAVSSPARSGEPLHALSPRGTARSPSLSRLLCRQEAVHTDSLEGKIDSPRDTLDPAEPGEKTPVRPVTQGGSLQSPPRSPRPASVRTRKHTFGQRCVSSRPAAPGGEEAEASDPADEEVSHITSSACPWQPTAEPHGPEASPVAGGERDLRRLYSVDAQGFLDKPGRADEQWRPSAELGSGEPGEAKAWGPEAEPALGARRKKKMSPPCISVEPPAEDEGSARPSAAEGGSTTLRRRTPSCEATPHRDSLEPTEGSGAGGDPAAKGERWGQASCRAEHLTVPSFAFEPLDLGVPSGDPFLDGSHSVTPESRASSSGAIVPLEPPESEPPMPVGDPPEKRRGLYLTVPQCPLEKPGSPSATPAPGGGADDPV
Sequence of 14-3-3 protein gamma (P61981 whole entry): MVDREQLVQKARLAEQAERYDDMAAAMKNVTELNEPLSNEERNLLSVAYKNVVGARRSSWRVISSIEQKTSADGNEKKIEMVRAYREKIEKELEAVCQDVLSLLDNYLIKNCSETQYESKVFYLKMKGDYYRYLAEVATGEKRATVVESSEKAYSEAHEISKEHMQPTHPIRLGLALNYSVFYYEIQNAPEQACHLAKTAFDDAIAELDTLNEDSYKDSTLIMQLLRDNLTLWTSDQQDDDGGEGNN
Sequence of Galanin receptor type 2 (O43603 whole entry): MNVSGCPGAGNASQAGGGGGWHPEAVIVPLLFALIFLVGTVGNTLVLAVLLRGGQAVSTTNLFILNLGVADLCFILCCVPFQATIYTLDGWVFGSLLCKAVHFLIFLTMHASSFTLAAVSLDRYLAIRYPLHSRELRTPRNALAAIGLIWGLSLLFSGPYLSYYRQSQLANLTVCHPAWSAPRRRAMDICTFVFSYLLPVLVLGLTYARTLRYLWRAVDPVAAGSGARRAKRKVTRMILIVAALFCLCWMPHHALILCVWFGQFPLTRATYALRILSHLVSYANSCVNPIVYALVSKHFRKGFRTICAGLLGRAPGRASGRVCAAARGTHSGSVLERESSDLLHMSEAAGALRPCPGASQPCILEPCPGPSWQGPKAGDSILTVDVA
Sequence of Cytochrome P450 2C9 (P11712 whole entry): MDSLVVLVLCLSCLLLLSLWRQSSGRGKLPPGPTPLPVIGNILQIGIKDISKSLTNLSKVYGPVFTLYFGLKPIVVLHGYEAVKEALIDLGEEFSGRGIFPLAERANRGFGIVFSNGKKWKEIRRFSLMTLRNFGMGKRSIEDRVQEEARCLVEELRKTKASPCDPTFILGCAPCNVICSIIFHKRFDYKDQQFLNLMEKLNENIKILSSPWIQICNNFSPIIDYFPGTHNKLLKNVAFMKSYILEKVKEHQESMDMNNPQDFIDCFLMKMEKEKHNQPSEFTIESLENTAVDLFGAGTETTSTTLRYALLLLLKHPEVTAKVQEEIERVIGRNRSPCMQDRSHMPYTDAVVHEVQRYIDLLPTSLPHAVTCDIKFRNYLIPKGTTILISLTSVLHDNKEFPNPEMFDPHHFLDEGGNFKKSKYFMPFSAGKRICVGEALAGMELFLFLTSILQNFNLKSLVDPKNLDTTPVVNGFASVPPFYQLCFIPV
Sequence of Protein Tat (P04608 whole entry): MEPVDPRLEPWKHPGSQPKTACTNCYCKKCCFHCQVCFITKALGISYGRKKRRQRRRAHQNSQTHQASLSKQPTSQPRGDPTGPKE
Sequence of Cytochrome P450 3A4 (P08684 whole entry): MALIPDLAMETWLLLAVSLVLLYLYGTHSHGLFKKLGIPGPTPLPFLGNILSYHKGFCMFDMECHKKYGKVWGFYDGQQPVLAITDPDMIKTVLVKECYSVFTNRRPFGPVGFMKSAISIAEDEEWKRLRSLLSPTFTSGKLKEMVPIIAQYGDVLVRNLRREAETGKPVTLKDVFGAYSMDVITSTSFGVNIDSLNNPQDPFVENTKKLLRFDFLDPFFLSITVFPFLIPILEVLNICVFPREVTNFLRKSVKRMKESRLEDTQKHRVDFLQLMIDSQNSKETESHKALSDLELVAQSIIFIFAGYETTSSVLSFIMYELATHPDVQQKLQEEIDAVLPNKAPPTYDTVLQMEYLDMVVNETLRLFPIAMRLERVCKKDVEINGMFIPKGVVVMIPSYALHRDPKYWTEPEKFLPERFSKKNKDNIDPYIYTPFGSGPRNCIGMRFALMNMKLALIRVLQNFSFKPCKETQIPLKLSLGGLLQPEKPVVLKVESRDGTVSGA

Q: For `O=C(Cn1cc2c(n1)CCCC2)NCc1ccccn1`, which IC50 (14-3-3 protein gamma) is on record?
A: Its IC50 is 25.6 µM (active).

Q: Which CC50 [1] does the source give for `Cn1nc(C(F)(F)F)c(C#N)c1N1CCN(c2ccc(F)cc2)CC1` here?
A: Its CC50 is > 40 µM (active).

Q: And the CC50 [2]?
A: Its CC50 is 8.85 µM (active).

Q: With `CCOc1ccc(-n2c(Cc3cc(O)nc(O)n3)nnc2SCC(=O)NC2CCCC2)cc1` as the molecule, how does the IC50 (Protein Tat) read?
A: Its IC50 is > 100 µM (active).

Q: For `O=C(CCCN1CCC(O)(c2ccc(Br)cc2)CC1)c1ccc(F)cc1` [BROMPERIDOL], which AC50 (Cytochrome P450 1A2) is on record?
A: The AC50 was 5.01 µM (inconclusive).

Q: What about the AC50 (Cytochrome P450 3A4) of the same molecule?
A: The AC50 was “inconclusive”.

Q: And the IC50 [3]?
A: Its IC50 is > 33.3 µM (inactive).

Q: For `Cc1c2ccncc2c(C)c2c1[nH]c1ccccc12` [ELLIPTECINE], which EC50 (Streptococcus) is on record?
A: The EC50 was 7.7 µM (active).

Q: What about the EC50 [4] of the same molecule?
A: The EC50 was 2.25 µM (active).

Q: What about the EC50 [5] of the same molecule?
A: Its EC50 is 3.99 µM (active).

Q: And the EC50 (Streptokinase A)?
A: Its EC50 is > 150 µM (not active).

Q: What about the GI50 (P388/ADR) of the same molecule?
A: The GI50 was 0.824 µM (active).

Q: And the AC50 (Cytochrome P450 2C9)?
A: The AC50 was 39.8 µM (inconclusive).

Q: And the GI50 (SN12K1)?
A: Its GI50 is 0.56 µM (active).

Q: What about the EC50 [6] of the same molecule?
A: Its EC50 is 0.177 µM (active).

Q: What about the EC50 (Galanin receptor type 2) of the same molecule?
A: Its EC50 is > 55.7 µM (not active).

Q: And the EC50 [7]?
A: The EC50 was 2.4 µM (active).

Q: And the EC50 [8]?
A: The EC50 was 0.117 µM (active).

Q: What about the GI50 (P388) of the same molecule?
A: Its GI50 is 0.383 µM (active).

Q: What about the AC50 [9] of the same molecule?
A: Its AC50 is 0.231 µM (active).

Q: What about the AC50 (INS1) of the same molecule?
A: Its AC50 is 2.12 µM (active).

Q: And the EC50 [10]?
A: Its EC50 is 6.17 µM (active).

Q: And the EC50 [11]?
A: The EC50 was > 120 µM (not active).

Q: With `O=C(CSc1nc2cccc(F)c2c(=O)n1-c1ccccc1)Nc1ccc2c(c1)CCC2` as the molecule, how does the CC50 (Vero) read?
A: Its CC50 is > 200 µM (active).
